Among the data in PubChem BioAssay (NCI) are GI50 and TGI values, retold here.

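Protocol summary: plate cells (96-well), add compound at 5 concentrations, incubate 48 h, interpolate endpoints linearly. GI50 is the concentration that inhibits growth by half. Definition used: TGI = concentration required for complete inhibition of growth.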 Where only a bound is given, the exact number is not on record here.

Some test systems named below: NCI-H226 lung; SR leukemia; SF-295 CNS; OVCAR-4 ovarian; MALME-3M melanoma; SN12C renal; A549 NSCLC; MDA-MB-231 breast; SK-MEL-5 melanoma; SK-MEL-28 melanoma.
Assay in all cases: NCI tumour cell line growth inhibition, 48 h

With `CN1CCN(c2ccc(Nc3ncc(Cl)c(NC[C@@H]4CCCO4)n3)cc2)CC1`, the GI50 is 0.266 µM in the experiment with NCI-H226 lung; 0.513 µM in the experiment with SR leukemia; 1.26 µM in the experiment with SF-295 CNS; 3.03 µM in the experiment on OVCAR-4 ovarian; 1.49 µM with MALME-3M melanoma; 1.13 µM in the experiment with SN12C renal. The GI50 in the experiment on A549 NSCLC is 1.05 µM; in the experiment with MDA-MB-231 breast, 1.62 µM; in the experiment with SK-MEL-5 melanoma it was 2.52 µM; with SK-MEL-28 melanoma it was 4.18 µM. The TGI in the experiment on NCI-H226 lung is 6.47 µM; in the experiment on SR leukemia, 6.03 µM; with SF-295 CNS, 26.3 µM; in the experiment with OVCAR-4 ovarian, 81.7 µM; in the experiment with MALME-3M melanoma it was 8.06 µM; in the experiment on SN12C renal it was above 100 µM. Besides, the TGI in the experiment on A549 NSCLC worked out at 5.5 µM; with MDA-MB-231 breast, 8.29 µM; in the experiment on SK-MEL-5 melanoma, 13.6 µM; in the experiment with SK-MEL-28 melanoma, 21.5 µM.

Take `O=C1c2c(F)c(F)c(F)c(F)c2C(=O)N1c1ccc(F)cc1F`: the GI50 was 17.2 µM in the experiment on NCI-H226 lung; 0.144 µM in the experiment on SR leukemia; 13.7 µM in the experiment with SF-295 CNS; 16.9 µM in the experiment with OVCAR-4 ovarian; 13.4 µM in the experiment on MALME-3M melanoma; 2.95 µM in the experiment with SN12C renal. Further, the GI50 in the experiment on A549 NSCLC is 16.3 µM; with MDA-MB-231 breast, 5.53 µM; with SK-MEL-5 melanoma, 13.1 µM; with SK-MEL-28 melanoma, 13.4 µM. Further, the TGI with NCI-H226 lung was 50.8 µM; in the experiment on SR leukemia, 1.2 µM; in the experiment with SF-295 CNS, 46.4 µM; in the experiment with OVCAR-4 ovarian, 53.3 µM; in the experiment on MALME-3M melanoma it was 33.9 µM; in the experiment on SN12C renal it was 10.1 µM. Moreover, the TGI with A549 NSCLC was 34.7 µM; in the experiment on MDA-MB-231 breast it was 19.5 µM; in the experiment on SK-MEL-5 melanoma, 30.6 µM; in the experiment with SK-MEL-28 melanoma it was above 72.4 µM.

Take `COc1ccc(CN2C(=O)C(Cl)=C(Nc3cccc(C(F)(F)F)c3)C2=O)cc1`: the GI50 was 2.57 µM with NCI-H226 lung; 2.77 µM with SR leukemia; 3.19 µM with SF-295 CNS; 4.74 µM in the experiment on OVCAR-4 ovarian; 2.99 µM with MALME-3M melanoma; 12.4 µM in the experiment on SN12C renal. The GI50 in the experiment on A549 NSCLC is 8.54 µM; in the experiment with MDA-MB-231 breast, 3.39 µM; with SK-MEL-5 melanoma it was 4.38 µM; with SK-MEL-28 melanoma, 4.89 µM. In addition, the TGI in the experiment on NCI-H226 lung was 17.4 µM; in the experiment on SR leukemia, 8.88 µM; in the experiment with SF-295 CNS, 65.3 µM; in the experiment with OVCAR-4 ovarian, 30.6 µM; with MALME-3M melanoma, 22.7 µM; in the experiment on SN12C renal, 30.8 µM. Moreover, the TGI was above 100 µM in the experiment on A549 NSCLC, 18 µM in the experiment on MDA-MB-231 breast, 18.5 µM with SK-MEL-5 melanoma and 18.2 µM in the experiment with SK-MEL-28 melanoma.

For the molecule `O=C1OCC2=C1C(c1cccc(Br)c1)c1cc3c(cc1N2CCO)OCCO3` (stereo not given), the GI50 is 0.072 µM in the experiment on NCI-H226 lung; 0.127 µM in the experiment on SR leukemia; 0.0184 µM with SF-295 CNS; 0.131 µM with OVCAR-4 ovarian; 0.0288 µM in the experiment on MALME-3M melanoma; 0.188 µM in the experiment on SN12C renal. Further, the GI50 with A549 NSCLC is 0.131 µM; in the experiment on MDA-MB-231 breast, 0.209 µM; in the experiment on SK-MEL-5 melanoma it was 0.0348 µM; in the experiment on SK-MEL-28 melanoma it was 0.0884 µM. Moreover, the TGI with NCI-H226 lung was 0.738 µM; in the experiment with SR leukemia, 31 µM; with SF-295 CNS, 0.417 µM; with OVCAR-4 ovarian, above 50 µM; with MALME-3M melanoma, 20.8 µM; with SN12C renal it was above 27.1 µM. The TGI is 5.97 µM with A549 NSCLC, 2.85 µM with MDA-MB-231 breast, 0.252 µM in the experiment on SK-MEL-5 melanoma and above 50 µM with SK-MEL-28 melanoma.

With `COC(=O)[C@]12CC[C@@H](C)[C@H](C)[C@@H]1C1=CC[C@@H]3[C@@]4(C)C[C@@H](O)[C@H](O)[C@@](C)(CO)[C@@H]4[C@H](O)C[C@@]3(C)[C@]1(C)CC2`, the GI50 is 17.8 µM with NCI-H226 lung; 11.9 µM in the experiment on SR leukemia; 15 µM with SF-295 CNS; 12.1 µM in the experiment with OVCAR-4 ovarian; 13 µM with MALME-3M melanoma; 14.5 µM in the experiment on SN12C renal. For the same molecule, the GI50 with A549 NSCLC was 15.8 µM; in the experiment with MDA-MB-231 breast it was 13 µM; with SK-MEL-5 melanoma it was 15.3 µM; in the experiment with SK-MEL-28 melanoma, 11.8 µM. The TGI in the experiment on NCI-H226 lung came out at 45 µM; with SR leukemia it was 40.8 µM; in the experiment with SF-295 CNS, 35.4 µM; in the experiment with OVCAR-4 ovarian, 32.8 µM; in the experiment with MALME-3M melanoma it was 32 µM; in the experiment on SN12C renal, 30.6 µM. Further, the TGI turned out to be 45.2 µM in the experiment on A549 NSCLC, 29.8 µM in the experiment with MDA-MB-231 breast, 28.9 µM in the experiment on SK-MEL-5 melanoma and 30.3 µM in the experiment on SK-MEL-28 melanoma.

For `O=C1NC(=NCc2ccccc2)S/C1=C\c1ccc2ncccc2c1`, the GI50 is above 25 µM in the experiment on NCI-H226 lung; 1.05 µM in the experiment on SR leukemia; above 25 µM with SF-295 CNS; above 25 µM in the experiment with OVCAR-4 ovarian; above 25 µM in the experiment on MALME-3M melanoma; above 25 µM in the experiment with SN12C renal. Further, the GI50 was 24.6 µM in the experiment on A549 NSCLC, above 25 µM in the experiment with MDA-MB-231 breast, above 25 µM in the experiment with SK-MEL-5 melanoma and above 25 µM with SK-MEL-28 melanoma. Also, the TGI with NCI-H226 lung, in the experiment on SR leukemia, in the experiment on SF-295 CNS, in the experiment with OVCAR-4 ovarian, in the experiment on MALME-3M melanoma and in the experiment with SN12C renal was above 25 µM throughout. Further, the TGI with A549 NSCLC, in the experiment with MDA-MB-231 breast, in the experiment on SK-MEL-5 melanoma and in the experiment on SK-MEL-28 melanoma was above 25 µM in each case.

Turning to `COc1c2ccccc2c(OC)c2[nH]c(=O)ccc12`, the GI50 with NCI-H226 lung is 2.37 µM; with SR leukemia, 6.61 µM; in the experiment with SF-295 CNS it was 1.44 µM; in the experiment with OVCAR-4 ovarian, 11.1 µM; in the experiment on MALME-3M melanoma it was 0.578 µM; with SN12C renal, 2.13 µM. The GI50 in the experiment with A549 NSCLC was 2.43 µM; with MDA-MB-231 breast, 9.75 µM; in the experiment with SK-MEL-5 melanoma, 0.847 µM; with SK-MEL-28 melanoma, 2.37 µM. Also, the TGI with NCI-H226 lung was 7.22 µM; in the experiment on SR leukemia it was above 100 µM; in the experiment with SF-295 CNS, 3.29 µM; with OVCAR-4 ovarian, above 100 µM; with MALME-3M melanoma, 1.78 µM; in the experiment with SN12C renal, above 21.2 µM. Further, the TGI in the experiment on A549 NSCLC was above 20.6 µM; in the experiment on MDA-MB-231 breast, above 89.8 µM; with SK-MEL-5 melanoma, 2.19 µM; in the experiment with SK-MEL-28 melanoma, 5.1 µM.
